Test results published in patent US5876715A, “Antibodies that bind novel carbohydrate ligands (myelorollins) that cause E-selectin dependent cell rolling, and uses thereof” (The Biomembrane Institute, priority 1996, dated 1999).
Entries after “also recorded” stand apart in the source; their conditions may differ.

System: E-selectin-expressing CHO cells
Assay: Static adhesion of E-selectin-expressing CHO cells to gangliosides coated on polystyrene beads affixed to glass slides
Format: cell-based, Chinese hamster
Conditions: static conditions, ganglioside coated on polystyrene beads affixed on glass slides
Experimental: Polystyrene beads (1 μm diameter) were spread and affixed to glass microscope slides as described in Materials & Methods, added with 100 ng of poly-LacNac ganglioside dissolved in isopropanol-hexane-water (50:45:10), allowed to dry for 1 hr, and immersed in PBS containing 2% BSA. The slides were placed in Petri dishes and overlaid with RPMI medium containing E-selectin-expressing CHO cells (1×10^5 /cells mL). After 10 min incubation, slides were washed with PBS and total numbers of cells adhered on beads were counted. Each point represents one experiment. Horizontal lines indicate arithmetic means.
Gangliosides coated on polystyrene beads affixed on glass slides as described above and placed in petri dishes were incubated with E-selectin-expressing CHO cells in 1% FCS-RPMI medium. After 30 min, slides were washed 3 times with PBS, and numbers of adherent cells were counted under a microscope.
Polystyrene latex beads were affixed on glass microscope slides, added with 1 nmol of ganglioside fraction dissolved in isopropanol-hexane-water (50:45:10), allowed to dry for 1 hr, and then immersed in PBS(+) containing 1% bovine serum albumin. The slides were placed in Petri dishes containing permanently E-selectin-expressing CHO cells (1×10^5) in RPMI medium. After 30 min. incubation, slides were washed with PBS and total numbers of cells adhered on the affixed beads were counted. Sdiy^2 is sialyl-Le^x -Le^x (VI^3 NeuAcV^3 FucIII^3 FucnLc6 Cer).
Static adhesion assay using polystyrene latex beads: In order to observe static adhesion with the same matrix used for dynamic adhesion assay, the following procedure was used. Polystyrene latex beads of 1 μm or 4 μm diameter (IDC Spheres™; IDC, Portland, Oreg.), affixed to objective microscope slides, were used as carriers of poly-LacNAc GSLs. 30 μL of the 4 μm diameter bead suspension (containing 2×10^9beads/mL) or 60 μL of 1 μm bead suspension (containing 1×10^11 beads/mL) were placed in Eppendorf tubes and washed with absolute ethanol 3×. Sedimented 4 μm beads were suspended in […] ethanol, and sedimented 1 μm beads were suspended in 2 mL ethanol. 1 μL aliquots of these suspensions were placed on freshly opened microscope slides (Labcraft Superfrost® Plus, Curtin Matheson Scientific, Houston, Tex.). Beads were distributed homogeneously on the glass surface within a circular spot with diameter ≈1 cm. Slides were heated at 150° C. for 50 sec, which caused the beads to adhere strongly to the surface such that they could not be washed off by water stream at various velocities. Gangliosides dissolved in isopropanol-hexane-water at the same molar concentration were applied to latex beads affixed to the slides; namely, 1 μL aliquots containing 50-100 ng ganglioside were placed on the center of the circular spot. The ganglioside thus became affixed to the bead surface. Plates were immersed in 3% BSA in PBS for 1 hr at room temp, and washed 3× with PBS containing Ca^2+ /Mg^2+.
Plates were overlaid with 5×10^5 CHO cells freshly harvested and suspended in RPMI culture medium for 15 min without moving. Washing with RPMI 3× was usually sufficient to eliminate non-adherent cells from beads. However, careful microscopic examination had to be repeated until the cells placed on control polystyrene beads were washed out. Plates were then fixed with 1% glutaraldehyde in PBS and number of cells adhered to the layer of poly-LacNAc ganglioside-coated beads were counted.

Row | Substance | adhesion of E-selectin-expressing CHO cells (number of cells adhered on beads) | further results
1 | VIII^3 NeuAcIII^3 FucnLc8 Cer [Fr. 10-2] | much weaker adhesion than Fr. 13-1 or Fr. 14 | –
2 | VIII^3 NeuAcV^3 FucnLc8 Cer [Fr. 10-1] | much weaker adhesion than Fr. 13-1 or Fr. 14 | adhesion of E-selectin-expressing CHO cells (number of cells adhered on beads) (listed as Str. 4): do not show appreciable adhesion
3 | VI^3 NeuAcV^3 FucIII^3 FucnLc6 Cer [SLe^x -Le^x, reference compound] | greatest cell adhesion; also recorded: highest adhesion; also recorded: slightly higher adhesion than Fr. 13-1; also recorded: highest binding; also recorded: higher number of E-selectin-expressing cells adhered | adhesion of E-selectin-expressing CHO cells (number of cells adhered on beads) (listed as Str. 3): much higher number of cells bound; also recorded: much higher adhesion than myelorollin
4 | VI^3 NeuAcnLc6 Cer [Fr. 7] | no adhesion | adhesion of E-selectin-expressing CHO cells (number of cells adhered on beads) (listed as Str. 1): did not bind
5 | X^3 NeuAcVII^3 FucV^3 FucnLc10 Cer [Fr. 13-1] | less than numbers binding to Str. 3 | –
6 | X^3 NeuAcVII^3 FucnLc10 Cer [Fr. 12-2] | much weaker adhesion than Fr. 13-1 or Fr. 14 | adhesion of E-selectin-expressing CHO cells (number of cells adhered on beads) (listed as Str. 6): do not show appreciable adhesion
